# According to patent US20240299505A1, “COMPOSITION FOR IMPROVING, PREVENTING OR TREATING INFLAMMATORY BOWEL DISEASE COMPRISING NAMPT-DERIVED PEPTIDE AS ACTIVE INGREDIENT” (Industry-University Cooperation Foundation Hanyang …, priority 2023, published 2024):
# How the values were obtained:
# [1] = tested on: colonic tissues; details: mice with acute colitis, intraperitoneal injection, Cy5.5 conjugate
# Protocol: The number of ITGA6+ or ITGB1+ cells was analyzed by FACS.
# Mice were intravenously injected with a lentivirus expressing nonspecific shRNA (shNS) or shRNA specific for ITGA6 (sh ITGA6) or ITGB1 (shITGB1) 2 times and then orally administered with DSS (Acute or chronic Colitis) and rCT-NAMPT, and then experiments were performed.
# Next, to evaluate the specificity of rCT-NAMPT, ITGA6- or ITGB1-knockdown mice were generated through sh-Lentiviral transduction. The mice were treated with DSS and administered rCT-NAMPT/Cy5.5 via intraperitoneal injection on day 6.
# [2] = tested on: DSS-induced chronic colitis; assay: DSS-induced chronic colitis mouse model; type: in vivo, C57BL/6 mice; details: 50 μg/kg i.p.
# Protocol: FIG. 10 confirms an effect of rCT-NAMPT in mice with DSS-induced chronic colitis. Specifically, (A) Scheme of the chronic colitis model treated with rCT-NAMPT (50 μg/kg) and 3% DSS. (B) The survival of mice was tracked for 9 weeks, and mortality was calculated for n=15 mice per group. Statistical differences between rVehicle treated animals were recorded (log-rank test). […] (C) Weight loss of rVehicle, rCT or rCT-NAMPT treatment in mice was confirmed (n=15). (D) Image (upper) and length (lower) of colon in 3% DSS-induced chronic colitis mice with rVehicle, rCT or rCT-NAMPT. (E) H&E staining of the colon (left) (n=8): a representative image. H&E staining was used to evaluate histopathology scores in 3% DSS-induced chronic colitis mice treated with rVehicle, rCT, or rCT-NAMPT. […]
# (§1) Dextran sodium sulfate (DSS)-induced acute or chronic colitis mouse models were constructed using 6-week-old C57BL/6 female mice (Samtako, Osan, Korea). […] The survival of mice was tracked for 12 days, and mortality was measured for n=15 mice per group. […] The survival of mice was tracked for 9 weeks, and mortality was measured for n=15 mice per group. […]
# Body weight, degree of bloody stool, and stool concentration were measured every day during the colitis induction to obtain the clinical score. The clinical score was determined by two trained investigators who were not provided with information about the experiment. […]
# [3] = tested on: DSS-induced acute colitis; assay: DSS-induced acute colitis mouse model (Lenti-shNS or Lenti-shITG transduced); type: in vivo, C57BL/6 mice; details: Lenti-shNS-transduced mice
# Protocol: FIG. 8 confirms an effect of rCT-NAMPT in mice with DSS-induced acute colitis. Specifically, (A) an experimental plan for an acute colitis model treated with rCT-NAMPT (50 μg/kg) and 3% DSS after introduction of Lenti-shNS or Lenti-shITG virus (left) and the survival rates of mice monitored for 12 days (right). Mortality was measured with n=15 mice per group. Statistical differences between rVehicle treated animals were recorded (log-rank test). […] (B) confirms a change in body weight of the experimental animals during an experiment period in (A) above (n=8). (C) is a colitis score result of the experimental animals in (A) above. […] (H) Results of hematoxylin and eosin (H&E) staining of the colon (left) (n=10): Representative radiohistopathology scores were evaluated using rVehicle, rCT, or rCT-NAMPT in 3% DSS-treated mice as illustrated in techniques (Materials and Methods). Statistical significance was evaluated using a Student's t-test using Bonferroni correction (***p<0.001) in comparison to rVehicle;
# as §1
sequence,measurement,setting,value
TWYKIAFQRNRK [rCT],tissue targeting (colon versus other organs),[1],"specifically targeted colonic tissues in mice with acute colitis, but not in other organs"
same,body weights,[2],Body weights fluctuated
same,survival rate / mortality,"[3]; 3% DSS, 50 μg/kg i.p. 8 times, 12 days",Neither rVehicle or rCT significantly affected mortality
same,colon histology (H&E staining),[3]; DSS,disrupted by DSS
